Measured values reported in patent US20130184272A1, “DIABETES THERAPEUTIC AGENT” (TAKEDA PHARMACEUTICAL COMPANY LIMITED, priority 2010, published 2013).

What was measured:
[1] = test system: Mouse-derived myoblast line C2C12 cell; test: Cell differentiation promoting activity in myoblast (creatine kinase activity); format: cell-based; conditions: 2 days, without compound = 100%; for activity at 0.01 µM / activity at 1 µM: Mus musculus, C2C12, 48 h, read-out: creatine kinase activating action (%); for activity at 0.01 µM: compound at 0.01 μM (**)
Description: • (1) Mouse-derived myoblast line C2C12 cell (Dainippon Pharmaceutical Co., Ltd.) was subcultured in a high glucose Eagle's modified Dulbecco's medium (GIBCO) added with 10% calf fetal bovine serum (GIBCO), 100 unit/mL penicillin and 100 μg/mL streptomycin (hereinafter to be referred to as a growth medium), plated at 5000 cells/cm^2 and cultured at 37° C., under 5% CO2. • (2) When the cells reached subconfluence of not less than 90%, the medium was exchanged with high glucose Eagle's modified Dulbecco's medium (GIBCO) added with (i) 2% horse serum (GIBCO) and (ii) penicillin, streptomycin and a test compound (hereinafter to be referred to as a differentiation medium) and the cells were cultured for 2 days. To the control group was added DMSO solution instead of the test compound. • (3) The cells were washed with PBS, 0.5% NP-40 solution was added, and the cells were lysed by freeze-thawing. The cell extract was centrifuged and the creatine kinase activity in the supernatant was measured as an index of muscle differentiation. The creatine kinase activity was measured using CPKII Test Wako (Wako Pure Chemical Industries, Ltd.) according to the manual of the kit.
The numerical values in Table 1 show creatine kinase activity of the compound addition group when the creatine kinase activity without addition of the compound is 100%, and * means measurement with addition of the compound at 10 μM, ** at 0.01 μM, and others at 1 μM.

C2C12 cell = test: Sugar metabolism promoting activity in muscle cell (lactic acid production); format: cell-based, Mouse; conditions: compound 1 μM, 2 days, C2C12 myotubes, without drug = 100%; for activity at 1 µM: Mus musculus, 48 h, read-out: lactic acid production promoting action (%)
Description: • (1) In the same manner as in Example 1, C2C12 cell was cultured in a growth medium. After reaching subconfluence of not less than 90%, the medium was exchanged with a differentiation medium and the cells were cultured for about 7 days while exchanging the medium every 2 or 3 days until the cells differentiated to form a myotube. • (2) After confirmation of myotube formation under a microscope, the test compound (1 μM) was added to a differentiation medium and cultured for 2 days. The cells were washed with Krebs-Ringer HEPES phosphate buffer (10 mM HEPES, pH 7.4, 131 mM NaCl, 4.7 mM KCl, 2.5 mM CaCl2—2H2O, 1.2 mM MgSO4—7H2O, 1.2 mM KH2PO4), the medium was exchanged with Krebs-Ringer HEPES phosphate buffer added with 5 mM glucose, 0.2% fatty acid-free bovine serum albumin, and cultured at 37° C. for 4 hr. • (3) The lactic acid concentration of the culture supernatant was measured using Detarminer LA kit (Kyowa Medex Co., Ltd.).
The numerical values in Table 2 show the concentration of the compound addition group with the concentration of lactic acid without addition of a drug as 100%.

Female KKA^y mice = test: Anti-diabetes action and dyslipidemia improving effect in KKA^y mouse; format: in vivo; conditions: 2 weeks, control group = 100
Description: Female KKA^y mice (12-week-old, CLEA Japan, Inc.) were bred while allowing free ingestion of both feed and water. The mice were bred for acclimation with powder CE-2 (CLEA Japan, Inc.) from 2 weeks before administration of the compound. The body weight and plasma markers were measured and, at 14 weeks of age, they were divided such that the measured values were uniform with those of the control group. The compound of Reference Example 1, 2, 7, 8, 9 or 22 was administered for 2 weeks in a mixed feed (0.01-0.0001%). On the last day, plasma levels of glucose, insulin, total cholesterol and neutral lipid were measured.

SMILES | activity at 0.01 µM [1] [%] | activity at 1 µM (C2C12 cell) [%] | plasma glucose (%) (Female KKA^y mice; mixed feed dose 0.0003 %) | plasma neutral lipid (%) (Female KKA^y mice; mixed feed dose 0.0003 %) | plasma total cholesterol (%) (Female KKA^y mice; mixed feed dose 0.0003 %) | activity at 1 µM ([1]; compound at 1 μM) [%] | further results
Cn1ncc2c1-c1c(Oc3ccc(OC(F)(F)F)cc3)sc(C(N)=O)c1CC2 [Ref. Ex. 8, 1-methyl-8-[4-(trifluoromethoxy)phenoxy]-4,5-dihydro-1H-thieno[3,4-g]indazole-6-carboxamide] | 190 | 274 | 78.2 ± 22.2 | 72.2 ± 22.1 | 85.7 ± 11.5 | – | –
Cn1ncc2c1-c1c(Oc3ccc(F)cc3)sc(C(N)=O)c1CC2 [Ref. Ex. 2, 8-(4-fluorophenoxy)-1-methyl-4,5-dihydro-1H-thieno[3,4-g]indazole-6-carboxamide] | 175 | 159 | 49.0 ± 7.1 | 40.4 ± 6.6 | 62.4 ± 7.1 | – | –
Cn1ncc2c1-c1c(Oc3ccc4c(c3)OCO4)sc(C(N)=O)c1CC2 [Ref. Ex. 9, 8-(1,3-benzodioxol-5-yloxy)-1-methyl-4,5-dihydro-1H-thieno[3,4-g]indazole-6-carboxamide] | 171 | 196 | – | – | – | – | plasma glucose (%) (Female KKA^y mice; mixed feed dose 0.001 %): 42.9 ± 3.7%; plasma insulin (%) (Female KKA^y mice; mixed feed dose 0.001 %): 13.7 ± 21.1%; plasma neutral lipid (%) (Female KKA^y mice; mixed feed dose 0.001 %): 51.0 ± 11.9%; plasma total cholesterol (%) (Female KKA^y mice; mixed feed dose 0.001 %): 74.5 ± 14.4%
CCCSc1sc(C(N)=O)c2c1-c1c(cnn1C)CC2 [Ref. Ex. 11, 1-methyl-8-(propylsulfanyl)-4,5-dihydro-1H-thieno[3,4-g]indazole-6-carboxamide] | – | 239 | – | – | – | 198 | –
CC(=O)Nc1ccc(Oc2sc(C(N)=O)c3c2-c2c(cnn2C)CC3)cc1 [Ref. Ex. 22, 8-[4-(acetylamino)phenoxy]-1-methyl-4,5-dihydro-1H-thieno[3,4-g]indazole-6-carboxamide] | 195 | 311 | 60.9 ± 27.1 | 42.3 ± 7.2 | 71.0 ± 7.3 | – | –
Cn1ncc2c1-c1c(Oc3cnc4ccccc4c3)sc(C(N)=O)c1CC2 [Ref. Ex. 30, 1-methyl-8-(quinolin-3-yloxy)-4,5-dihydro-1H-thieno[3,4-g]indazole-6-carboxamide] | 166 | 260 | – | – | – | – | –
Cn1ncc2c1-c1c(Oc3ccc[n+]([O-])c3)sc(C(N)=O)c1CC2 [Ref. Ex. 33, 1-methyl-8-[(1-oxidepyridin-3-yl)oxy]-4,5-dihydro-1H-thieno[3,4-g]indazole-6-carboxamide] | – | – | – | – | – | – | creatine kinase activating action (%) ([1]; compound at 1 μM): 156%; lactic acid production promoting action (%) (C2C12 cell): 155%
Cc1cccc(Oc2sc(C(N)=O)c3c2-c2c(cnn2C)CC3)n1 [Ref. Ex. 38, 1-methyl-8-[(6-methylpyridin-2-yl)oxy]-4,5-dihydro-1H-thieno[3,4-g]indazole-6-carboxamide] | – | 157 | – | – | – | 152 | –
COc1ncccc1Oc1sc(C(N)=O)c2c1-c1c(cnn1C)CC2 [Ref. Ex. 34, 8-[(2-methoxypyridin-3-yl)oxy]-1-methyl-4,5-dihydro-1H-thieno[3,4-g]indazole-6-carboxamide] | – | 249 | – | – | – | 164 | –
Cn1ncc2c1-c1c(Oc3ccc4ncccc4c3)sc(C(N)=O)c1CC2 [Ref. Ex. 18, 1-methyl-8-(quinolin-6-yloxy)-4,5-dihydro-1H-thieno[3,4-g]indazole-6-carboxamide] | 160 | 220 | – | – | – | – | –
